From ChEMBL document CHEMBL1201862, “PubChem BioAssay data set” (2004)
Active and inactive are the calls of the source. Cut-off read from the data, not from the text of the source, for most assays here: actives have a measured EC50 and inactives only a lower limit.

Experiments:
[1] = HEp-2 cell cytotoxicity, dose response, cytotoxicity control for RSV inhibitor project, HTS (AID 2410); assay type: functional; settings: human respiratory syncytial virus
[2] = inhibitors of intracellular T. cruzi replication, confirmation, NIH3T3 host cells, beta-gal luminescence (AID 2044); assay type: functional, cell-based;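 note: intracellular parasites grown in NIH/3T3 mouse fibroblasts as host cells; luminescent beta-galactosidase reporter signal from transgenic T. cruzi replicating inside host cells; inhibitors lower the luminescence signal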
[3] = cytotoxicity toward NIH3T3 fibroblasts, dose response, counter-screen, cell-based, ATP luminescence, mouse fibroblasts (AID 2010); assay type: functional;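 note: cells exposed to compound for about 90 hours before reading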
[4] = molecular target: T1, Cytochrome P450 1A2 (Homo sapiens, UniProt P05177);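 note: PubChem cytochrome P450 panel assay, CYP1A2 panel member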
T1 sequence (P05177 whole entry): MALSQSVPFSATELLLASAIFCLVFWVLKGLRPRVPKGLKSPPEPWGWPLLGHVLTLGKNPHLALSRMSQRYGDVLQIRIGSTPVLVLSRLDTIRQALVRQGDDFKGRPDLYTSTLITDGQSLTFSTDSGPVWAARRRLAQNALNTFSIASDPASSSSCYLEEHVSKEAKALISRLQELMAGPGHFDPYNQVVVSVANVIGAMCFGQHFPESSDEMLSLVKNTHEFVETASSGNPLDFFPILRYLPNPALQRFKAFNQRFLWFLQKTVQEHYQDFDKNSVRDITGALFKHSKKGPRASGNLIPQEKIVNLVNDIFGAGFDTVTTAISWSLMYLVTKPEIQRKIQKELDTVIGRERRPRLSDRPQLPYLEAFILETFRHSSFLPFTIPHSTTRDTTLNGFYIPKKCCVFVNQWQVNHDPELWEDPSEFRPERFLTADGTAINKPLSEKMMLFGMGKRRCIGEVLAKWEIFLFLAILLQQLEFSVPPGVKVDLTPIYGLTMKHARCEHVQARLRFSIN

[5] = molecular target: T2, Replicative DNA helicase DnaB (Mycobacterium tuberculosis, UniProt P9WMR3); test: DnaB intein splicing inhibitors, dose response, biochemical, cell-free fluorescence (AID 449749); assay type: functional
T2 sequence (P9WMR3 whole entry): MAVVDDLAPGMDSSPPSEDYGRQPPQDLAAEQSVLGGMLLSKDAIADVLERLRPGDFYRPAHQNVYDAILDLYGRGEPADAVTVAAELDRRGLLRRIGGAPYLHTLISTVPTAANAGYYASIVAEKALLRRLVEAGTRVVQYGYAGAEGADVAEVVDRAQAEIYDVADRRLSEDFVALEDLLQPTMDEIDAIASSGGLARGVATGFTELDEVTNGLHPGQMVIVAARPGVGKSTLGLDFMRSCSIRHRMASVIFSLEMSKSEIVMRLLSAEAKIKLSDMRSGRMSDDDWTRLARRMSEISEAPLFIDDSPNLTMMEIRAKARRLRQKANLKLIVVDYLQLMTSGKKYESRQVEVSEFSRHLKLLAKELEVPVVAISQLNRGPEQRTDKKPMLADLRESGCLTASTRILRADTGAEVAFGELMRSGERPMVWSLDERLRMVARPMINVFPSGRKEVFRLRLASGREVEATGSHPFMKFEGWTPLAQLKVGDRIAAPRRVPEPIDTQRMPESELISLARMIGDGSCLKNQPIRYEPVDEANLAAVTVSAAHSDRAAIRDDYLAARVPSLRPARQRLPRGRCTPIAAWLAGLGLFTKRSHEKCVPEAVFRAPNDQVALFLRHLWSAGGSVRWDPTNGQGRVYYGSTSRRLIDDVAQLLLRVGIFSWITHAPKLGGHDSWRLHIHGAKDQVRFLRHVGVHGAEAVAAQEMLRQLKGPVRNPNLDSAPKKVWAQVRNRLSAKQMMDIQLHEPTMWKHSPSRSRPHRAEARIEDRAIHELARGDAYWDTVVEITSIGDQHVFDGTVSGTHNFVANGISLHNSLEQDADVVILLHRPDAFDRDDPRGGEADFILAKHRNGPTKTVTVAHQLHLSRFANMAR

[6] = molecular target: T3, Protein RecA (Mycobacterium tuberculosis, UniProt P9WHJ3); test: Fluorescence Cell-Free Homogeneous Dose Retest to Identify Inhibitors of RecA-Intein Splicing Activity. [Related pubchem assays (depositor defined):AID2097, AID2223, AID489010, AID492950]; assay type: functional
T3 sequence (P9WHJ3 whole entry): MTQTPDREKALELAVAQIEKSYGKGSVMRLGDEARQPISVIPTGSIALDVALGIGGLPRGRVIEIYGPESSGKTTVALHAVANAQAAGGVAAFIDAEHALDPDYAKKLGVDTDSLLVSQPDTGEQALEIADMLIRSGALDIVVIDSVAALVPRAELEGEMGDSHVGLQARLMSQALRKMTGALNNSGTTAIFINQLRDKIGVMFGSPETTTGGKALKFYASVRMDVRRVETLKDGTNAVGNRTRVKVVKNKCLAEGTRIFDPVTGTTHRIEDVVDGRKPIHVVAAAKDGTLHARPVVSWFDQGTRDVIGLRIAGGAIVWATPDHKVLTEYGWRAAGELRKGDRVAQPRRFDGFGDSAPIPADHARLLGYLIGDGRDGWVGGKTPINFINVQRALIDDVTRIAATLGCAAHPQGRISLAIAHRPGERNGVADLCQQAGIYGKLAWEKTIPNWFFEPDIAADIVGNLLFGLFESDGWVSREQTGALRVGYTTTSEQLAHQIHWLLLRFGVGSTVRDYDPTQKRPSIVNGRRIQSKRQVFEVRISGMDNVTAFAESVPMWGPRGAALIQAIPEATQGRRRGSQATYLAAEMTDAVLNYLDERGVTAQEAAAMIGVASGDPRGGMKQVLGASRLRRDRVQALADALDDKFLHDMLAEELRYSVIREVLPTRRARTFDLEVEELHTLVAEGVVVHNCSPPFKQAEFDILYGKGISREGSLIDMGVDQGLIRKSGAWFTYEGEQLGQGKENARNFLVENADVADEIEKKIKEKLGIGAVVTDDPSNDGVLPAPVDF

[7] = tested on: Streptococcus; test: Group A Streptococcus viability loss, dose response, counter-screen for streptokinase expression inhibitor project, luminescence, BacTiterGlo (AID 1915); assay type: functional, organism-based;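 note: potency for reduction of bacterial viability or growth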
[8] = tested on: Streptococcus sp. 'group A'; test: growth inhibition of control SK(-) GAS strain, dose response, counter-screen for streptokinase expression inhibitor project, luminescence, kanamycin, BacTiterGlo, confirmation (AID 1900); assay type: functional, organism-based

CC1(C)Cc2ccccc2-c2nnc(S)n21
CC50 [1]: 31.5 µM (active)

COc1ccc(C)cc1NC(=O)CN1CCN(S(=O)(=O)c2ccc(C(C)C)cc2)CC1
EC50 [2]: 1.79 µM (active)
EC50 [3]: > 30 µM (not active)

COc1ccc(-n2c(=O)c(-c3cn(C)c4ccccc34)nc3cnc(N4CCOCC4)nc32)cc1
AC50 [4]: 31.6 µM (inconclusive)

Cc1ccc(CNC(=O)CCC2CCCN(Cc3ccc4cccc(F)c4n3)C2)o1 (stereo unspecified)
EC50 [2]: 0.791 µM (active)
EC50 [3]: > 60 µM (not active)

Cc1c(C(=O)N2CCc3ccccc3C2)sc2nc(-c3ccccc3)cn12
CC50 [1]: 30.3 µM (active)

COc1cc(/C=N/NC(=O)c2nnn(-c3nonc3N)c2C(C)C)ccc1OCc1ccccc1
CC50 [1]: 14 µM (active)

CC(=O)/N=c1\sc2c3ccccc3ccc2n1C
EC50 [2]: 0.643 µM (active)
EC50 [3]: > 30 µM (not active)

O=C(N/N=C/c1nn(-c2ccccc2)cc1-c1ccc(Cl)cc1)c1ccncc1
CC50 [1]: 10.1 µM (active)

O=S(=O)(c1ccccc1)N1CCC[C@@]2(CCN(c3cccc(-c4ccccc4)c3)C2)C1
AC50 [4]: 15.8 µM (inconclusive)

COc1ccc(NC(=O)c2cccc(N3C(=O)C4C5C=CC(C5)C4C3=O)c2)cc1Cl (stereo unspecified)
AC50 [5]: > 380 µM (inactive)
EC50 [6]: 18.5 µM (active)

Cc1nc(-c2ccccn2)nc(SCC(=O)c2ccccc2)c1Cl
EC50 [7]: 11.4 µM (active)
EC50 [8]: 3.92 µM (active)

Clc1ccccc1-c1ncc2ccccn12
EC50 [2]: 2.45 µM (active)
EC50 [3]: > 60 µM (not active)

CCOC(=O)c1[nH]c2ccc(OC)cc2c1C(SCC(=O)O)c1ccc(C(F)(F)F)cc1 (stereo unspecified)
CC50 [1]: 21.1 µM (active)

Cc1nn(C)cc1CN1CCCC(C(=O)c2ccc(-c3ccccc3)cc2)C1 (stereo unspecified)
EC50 [2]: 0.123 µM (active)
EC50 [3]: > 60 µM (not active)

Cc1noc(C)c1-c1cncnc1Nc1ccccc1
AC50 [4]: 25.1 µM (inconclusive)

CCCOc1ccc(C(=O)NNC(=S)NC(=O)c2cc(-c3ccccc3)nc3ccccc23)cc1
AC50 [4]: 17.8 µM (inconclusive)

O=[N+]([O-])c1ccc(S(=O)(=O)N2CCN(c3ccnc4cc(Cl)ccc34)CC2)cc1
EC50 [2]: 0.581 µM (active)
EC50 [3]: > 60 µM (not active)

N#CC1=C(N)C(C#N)(C#N)[C@H](c2c(F)cccc2F)[C@H]2CC3(CC=C12)OCCO3
AC50 [5]: > 380 µM (inactive)
EC50 [6]: 22.2 µM (active)

CC(C)c1ccccc1OCC(O)CN1CCN(S(=O)(=O)c2ccc([N+](=O)[O-])cc2)CC1 (stereo unspecified)
EC50 [2]: 0.409 µM (active)
EC50 [3]: > 60 µM (not active)

O=C(COC(=O)c1c2c(nc3ccccc13)/C(=C\c1cccs1)CCC2)Nc1ccccc1Cl
EC50 [2]: 1.73 µM (active)
EC50 [3]: > 60 µM (not active)

N#CC1=C(N)Oc2[nH]nc(-c3cccs3)c2C1c1ccco1 (stereo unspecified)
AC50 [5]: 8.22 µM (active)
EC50 [6]: 7.2 µM (active)

Cc1nc2ccccc2c2c1C(=O)N(Cc1cccnc1)C2=O
AC50 [5]: 32.8 µM (active)
EC50 [6]: 1.02 µM (active)

COCc1n[nH]c2c1C(c1cccc(OC)c1)C(C#N)=C(N)O2 (stereo unspecified)
AC50 [5]: 40 µM (active)
EC50 [6]: 27 µM (active)

COc1ccc(-c2ccc(-c3noc(-c4ccccc4)n3)c(OC)n2)cc1
CC50 [1]: 36.4 µM (active)

CC(C)=CCc1cc([C@@H]2CC(=O)c3ccc(O)c(CC=C(C)C)c3O2)ccc1O [GLABROL]
EC50 [7]: 5.43 µM (active)
EC50 [8]: 6.4 µM (active)

COc1c(N2CCNC(C)C2)c(F)cc2c(=O)c(C(=O)O)cn(C3CC3)c12 (stereo unspecified) [GATIFLOXACIN]
EC50 [7]: 1.09 µM (active)
EC50 [8]: 0.66 µM (active)

CCn1c2ccccc2c2cc(NC(=O)c3ccc(Br)o3)ccc21
CC50 [1]: 27.8 µM (active)

CCOC(=O)c1ccc(-n2ccnc2)c(NC(=O)c2cccc(Br)c2)c1
EC50 [2]: 0.281 µM (active)
EC50 [3]: > 60 µM (not active)

N#C/C(=C/c1ccncc1)c1nc2ccccc2s1
AC50 [5]: > 120 µM (inactive)
EC50 [6]: 1.67 µM (active)

c1ccc2sc(C3CCNCC3)nc2c1
EC50 [2]: 2.58 µM (active)
EC50 [3]: > 60 µM (not active)

Cc1onc(-c2ccc(Cl)cc2Cl)c1-c1csc(N/N=C/c2ccccc2Cl)n1
EC50 [2]: 2.08 µM (active)
EC50 [3]: 13.9 µM (active)

C/C(CC(=O)Nc1cc(C)ccn1)=N\NC(=O)c1ccc(C)cc1
AC50 [5]: 24.4 µM (active)
EC50 [6]: 8.13 µM (active)

Cc1ccc(NP(=O)(c2ccc(N(C)C)cc2NC(=O)c2cccs2)N2CCOCC2)cc1Cl (stereo unspecified)
EC50 [2]: 1.9 µM (active)
EC50 [3]: > 30 µM (not active)

O=C(C1=C[C@H](c2ccc(Br)cc2)C[C@H](OCCCCO)O1)N1CCN(Cc2ccccc2)CC1
EC50 [2]: 0.874 µM (active)
EC50 [3]: > 60 µM (not active)

O=C(NC1CCCCCC1)c1cccnc1S
EC50 [2]: 8.39 µM (active)
EC50 [3]: > 60 µM (inconclusive)

Cc1sc(NC(=O)CSC2=NCCS2)nc1-c1ccccc1
AC50 [5]: 12.7 µM (active)
EC50 [6]: 4.25 µM (active)

C[C@@H](C(=O)NCc1ccccn1)[C@@H]1C[C@@]1(C)[C@@H](NC(=O)OCc1ccccc1)c1ccccc1
AC50 [4]: 20 µM (inconclusive)

COc1ccc(C2C(C#N)=C(N)Oc3c2c(C)nn3-c2ccccc2)cc1Cn1nc(C)c([N+](=O)[O-])c1C (stereo unspecified)
AC50 [5]: 2.95 µM (active)
EC50 [6]: 10.5 µM (active)

COc1ccc(Cl)cc1N=C(S)NCCC(c1ccccc1)c1ccccc1
EC50 [2]: 1.44 µM (active)
EC50 [3]: > 60 µM (not active)

Cc1c(-c2ccccc2)oc2c(C(=O)OCCN3CCCCC3)cccc2c1=O [FLAVOXATE]
AC50 [4]: 6.31 µM (inconclusive)

CC(C)(C)c1ccc(C(=O)Cn2cnnc2C#N)cc1
AC50 [5]: 48.9 µM (active)
EC50 [6]: 20 µM (active)

CS(=O)(=O)N1CCC(Oc2ccccc2C(=O)N2CCCCC2CO)CC1 (stereo unspecified)
AC50 [5]: > 380 µM (inactive)
EC50 [6]: > 380 µM (inactive)

Clc1ccc(N2CCCCCC2)nn1
AC50 [4]: 15.8 µM (inconclusive)

COC(=O)C1=NN(C(C)=O)C2(CC(=O)N(c3cc(C)cc(C)c3)C2=O)C1 (stereo unspecified)
AC50 [5]: > 380 µM (inactive)
EC50 [6]: > 380 µM (inactive)

C=C(C)COc1ccc(-c2nc(N)nc(C(F)(F)F)c2-c2ccc(OC)cc2)c(O)c1
EC50 [2]: 2 µM (active)
EC50 [3]: > 60 µM (not active)
